# From US9234186B2, “Star-worm luciferase” (OLYMPUS CORPORATION, priority 2011, dated 2016)
# Target: GL3 luciferase derived from P. pyralis (Photinus pyralis, UniProt P08659, K549A/L550V/N119G/N50D/S548I)
# Type: biochemical
# Settings: read-out: Km for ATP; 0.1 M Tris-HCl pH 8.0; enzyme solution with 1 mM D-luciferin, 8 mM MgSO4
# Sequence of GL3 luciferase derived from P. pyralis (P08659 whole entry N50D/N119G/S548I/K549A/L550V): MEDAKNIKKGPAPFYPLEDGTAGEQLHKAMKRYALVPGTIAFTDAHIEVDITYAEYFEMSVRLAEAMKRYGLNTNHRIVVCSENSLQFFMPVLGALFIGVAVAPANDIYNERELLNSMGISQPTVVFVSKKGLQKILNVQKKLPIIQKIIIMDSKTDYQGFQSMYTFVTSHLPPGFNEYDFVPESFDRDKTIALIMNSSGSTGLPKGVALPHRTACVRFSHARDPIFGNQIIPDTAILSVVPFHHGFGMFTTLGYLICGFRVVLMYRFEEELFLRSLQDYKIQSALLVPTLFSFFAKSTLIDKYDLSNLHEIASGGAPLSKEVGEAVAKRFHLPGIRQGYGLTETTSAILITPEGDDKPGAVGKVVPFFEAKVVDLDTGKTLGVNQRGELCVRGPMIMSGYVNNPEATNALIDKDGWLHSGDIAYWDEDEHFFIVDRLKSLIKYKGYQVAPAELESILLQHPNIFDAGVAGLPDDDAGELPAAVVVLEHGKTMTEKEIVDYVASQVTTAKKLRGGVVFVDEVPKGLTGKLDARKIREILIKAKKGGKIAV
structure (smiles),measurement,value
"Nc1ncnc2c1ncn2[C@@H]1O[C@H](COP(=O)(O)OP(=O)(O)OP(=O)(O)O)[C@@H](O)[C@H]1O [ATP, Adenosine triphosphate]",Km,64.3 µM
